Results published in US20120196791A1, “COMBINATION THERAPIES USING ANTIBACTERIAL AMINOGLYCOSIDE COMPOUNDS” (Achaogen, Inc., priority 2009, published 2012).
Like-named read-outs stand apart in the source and are kept apart here.

Assays:
[1] = tested on: P. aeruginosa strains; experiment: MIC by macrodilution; format: cell-based; conditions: Pseudomonas aeruginosa
Excerpt: (§1) “MIC”, which stands for minimum inhibitory concentration, refers to that concentration, in μg/mL, of a compound of this invention that inhibits the growth and/or proliferation of a strain of bacteria by at least 80% compared to an untreated control as determined by visual inspection of a liquid culture.
Synergy time-kill was used to test the activity of Example 1, alone and in combination with cefepime, doripenem, imipenem and piperacillin/tazobactam, against 10 P. aeruginosa strains. The 10 clinical isolates included 5 cefepime resistant, 5 doripenem resistant, 8 imipenem resistant, and 9 piperacillin/tazobactam resistant strains. MICs were determined by macrodilution and time-kill was used to verify the activity of all five agents alone. MICs were predetermined by macrodilution in cation-adjusted Mueller-Hinton broth (BBL Microbiology Systems, Cockeysville, Md.) according to standard methodology. All strains were tested by time-kill methodology with each compound alone according to standard methods. Strains were examined by PCR for genes encoding aminoglycoside modifying enzymes (AMEs). Cultures were initiated by adding 35-μL aliquots of suspensions into 5 mL of broth. Viability counts (100-μL aliquots) in synergy tests were performed at 0, 3, 6, 12, and 24 h in a shaking water bath at 35° C. with final inocula of between 5×10^5 and 5×10^6 CFU/mL. Only plates with 30 to 300 colonies were counted.

[2] = tested on: S. aureus strains; experiment: MIC by macrodilution; format: cell-based; conditions: Staphylococcus aureus
Excerpt: as §1
Synergy time-kill was used to test the activity of Example 1, alone and in combination with daptomycin (DAP), ceftobiprole (BPR), and linezolid (LZD), against 25 S. aureus strains. 25 clinical isolates included 2 hVISA, 2 VISA, and 5 VRSA, 10 hospital acquired and 6 community acquired MRSA strains. MICs were determined by macrodilution and time-kill was used to verify the activity of all four agents alone. MICs were predetermined by macrodilution in cation-adjusted Mueller-Hinton broth (BBL Microbiology Systems, Cockeysville, Md.) according to standard methodology. Daptomycin susceptibility testing was performed in Mueller-Hinton broth adjusted to 50 μg/mL of calcium according to standard methodology. All strains were tested by time-kill methodology with each compound alone according to standard methods. Cultures were initiated by adding 35-μL aliquots of suspensions into 5 mL of broth. Viability counts (100-μL aliquots) in synergy tests were performed at 0, 3, 6, 12, and 24 h in a shaking water bath at 35° C. with final inocula of between 5×10^5 and 5×10^6 CFU/mL. Only plates with 30 to 300 colonies were counted.

[3] = range over 10 P. aeruginosa strains, read-out: MICs of each agent alone

C[C@@H](O)[C@H]1C(=O)N2C(C(=O)O)=C(S[C@@H]3CN[C@H](CNS(N)(=O)=O)C3)[C@H](C)[C@H]12 [Doripenem, doripenem]
MIC ([1]; Strain 1, read-out: MIC): 2 µg/mL
MIC ([1]; Strain 2, read-out: MIC): 0.25 µg/mL
MIC ([1]; Strain 3, read-out: MIC): 4 µg/mL
MIC ([1]; Strain 4, read-out: MIC): 2 µg/mL
MIC ([1]; Strain 5, read-out: MIC): 8 µg/mL
MIC ([1]; Strain 6, read-out: MIC): 0.5 µg/mL
MIC ([1]; Strain 7, read-out: MIC): 8 µg/mL
MIC ([1]; Strain 8, read-out: MIC): 2 µg/mL
MIC ([1]; Strain 9, read-out: MIC): 32 µg/mL
MIC ([1]; Strain 10, read-out: MIC): 8 µg/mL
MIC [1, 3]: 0.25 to 32 µg/mL

C[C@@H](O)[C@H]1C(=O)N2C(C(=O)O)=C(SCCN=CN)C[C@H]12 [Imipenem, imipenem]
MIC ([1]; Strain 1, read-out: MIC): 8 µg/mL
MIC ([1]; Strain 2, read-out: MIC): 2 µg/mL
MIC ([1]; Strain 3, read-out: MIC): 8 µg/mL
MIC ([1]; Strain 4, read-out: MIC): 16 µg/mL
MIC ([1]; Strain 5, read-out: MIC): 32 µg/mL
MIC ([1]; Strain 6, read-out: MIC): 0.25 µg/mL
MIC ([1]; Strain 7, read-out: MIC): 4 µg/mL
MIC ([1]; Strain 8, read-out: MIC): 4 µg/mL
MIC ([1]; Strain 9, read-out: MIC): 32 µg/mL
MIC ([1]; Strain 10, read-out: MIC): 32 µg/mL
MIC [1, 3]: 0.25 to 32 µg/mL

CCCCCCCCCC(=O)N[C@@H](Cc1c[nH]c2ccccc12)C(=O)N[C@H](CC(N)=O)C(=O)N[C@@H](CC(=O)O)C(=O)N[C@@H]1C(=O)NCC(=O)N[C@@H](CCCN)C(=O)N[C@@H](CC(=O)O)C(=O)N[C@H](C)C(=O)N[C@@H](CC(=O)O)C(=O)NCC(=O)N[C@H](CO)C(=O)N[C@@H]([C@H](C)CC(=O)O)C(=O)N[C@@H](CC(=O)c2ccccc2N)C(=O)O[C@@H]1C [Daptomycin, daptomycin]
MIC ([2]; ATCC 33591 / MRSA, Strain 13, ATCC33591 HA-MRSA, read-out: MIC): 0.5 µg/mL
MIC ([2]; MRSA, Strain 6, CA-MRSA, PVL+, read-out: MIC): 0.5 µg/mL
MIC ([2]; MRSA, Strain 7, CA-MRSA, PVL+, read-out: MIC): 0.5 µg/mL
MIC ([2]; MRSA, Strain 8, CA-MRSA, PVL+, read-out: MIC): 0.5 µg/mL
MIC ([2]; MRSA, Strain 14, HA-MRSA, read-out: MIC): 0.25 µg/mL
MIC ([2]; MRSA, Strain 15, HA-MRSA, read-out: MIC): 0.5 µg/mL
MIC ([2]; MRSA, Strain 16, HA-MRSA, read-out: MIC): 1 µg/mL
MIC ([2]; MRSA, Strain 17, HA-MRSA, read-out: MIC): 0.5 µg/mL
MIC ([2]; MRSA, Strain 18, HA-MRSA, read-out: MIC): 0.5 µg/mL
MIC ([2]; MRSA, Strain 19, HA-MRSA, read-out: MIC): 0.5 µg/mL
MIC ([2]; MRSA, Strain 20, HA-MRSA, read-out: MIC): 0.5 µg/mL
MIC ([2]; MRSA, Strain 21, HA-MRSA, read-out: MIC): 0.5 µg/mL
MIC ([2]; MRSA, Strain 22, HA-MRSA, read-out: MIC): 0.5 µg/mL
MIC ([2]; MRSA, Strain 23, CA-MRSA PVL+, read-out: MIC): 1 µg/mL
MIC ([2]; MRSA, Strain 24, CA-MRSA PVL+, read-out: MIC): 0.5 µg/mL
MIC ([2]; MRSA, Strain 25, CA-MRSA PVL neg, read-out: MIC): 0.5 µg/mL
MIC ([2]; Strain 9, hVISA, read-out: MIC): 1 µg/mL
MIC ([2]; Strain 10, hVISA, read-out: MIC): 0.5 µg/mL
MIC ([2]; VISA, Strain 11, VISA, read-out: MIC): 4 µg/mL
MIC ([2]; VISA, Strain 12, VISA, read-out: MIC): 2 µg/mL
MIC ([2]; VRSA, Strain 1, VRSA, read-out: MIC): 0.5 µg/mL
MIC ([2]; VRSA, Strain 2, VRSA, read-out: MIC): 0.25 µg/mL
MIC ([2]; VRSA, Strain 3, VRSA, read-out: MIC): 0.5 µg/mL
MIC ([2]; VRSA, Strain 4, VRSA, read-out: MIC): 0.5 µg/mL
MIC ([2]; VRSA, Strain 5, VRSA, read-out: MIC): 0.25 µg/mL
MIC ([2]; range over 25 S. aureus strains, read-out: MICs of each agent alone): 0.25 to 4 µg/mL

CO/N=C(\C(=O)N[C@@H]1C(=O)N2C(C(=O)[O-])=C(C[N+]3(C)CCCC3)CS[C@H]12)c1csc(N)n1 [Cefepime, cefepime]
MIC [1]: 256 µg/mL
MIC ([1]; Strain 1, read-out: MIC): 16 µg/mL
MIC ([1]; Strain 2, read-out: MIC): 4 µg/mL
MIC ([1]; Strain 3, read-out: MIC): 8 µg/mL
MIC ([1]; Strain 4, read-out: MIC): 8 µg/mL
MIC ([1]; Strain 5, read-out: MIC): 32 µg/mL
MIC ([1]; Strain 6, read-out: MIC): 1 µg/mL
MIC ([1]; Strain 7, read-out: MIC): 16 µg/mL
MIC ([1]; Strain 8, read-out: MIC): 4 µg/mL
MIC ([1]; Strain 9, read-out: MIC): 32 µg/mL
MIC [1, 3]: 1 to 256 µg/mL
